Test results as given in patent publication US20140121240A1, “NOVEL PHARMACEUTICAL COMPOSITION” (MARUHO CO., LTD., priority 2011, published 2014).
Marks after values point to notes of the source that are not given here. Each block holds one molecule with its values, some of them ahead of it.

Tests used:
[1] = system: oxazolone-induced inflammatory reactions of right ear auricle; assay: Chronic oxazolone-induced dermatitis model: ear auricle thickness (Experiment 4); format: in vivo, mouse; settings: Compound A 1%, Tacrolimus 0.1%, Dexamethasone 0.01% w/v in 0.25% oxazolone
Description: (§1) [Antipruritic Effect of Test Compound in Chronic Oxazolone-Induced Dermatitis Model]
(§2) A magnet for measurement was implanted into an instep part of right hindlimb of BALB/c male mouse (fed for one week from five-week old; Charles River Laboratories, Japan Inc.) under anesthesia, and on the same day, sensitization was carried out by topically administering 0.5% w/v solution (10 μL) of oxazolone in acetone respectively onto the both sides of right ear auricle of the animal (sensitization day). On each point of the 7th, 9th, 11th, 14th and 16th day reckoned from the day after the sensitization (1st day), each mouse was challenged by topical administration of a 10 μL solution of test compound [acetone (vehicle-treated group), 0.25% w/v solution of oxazolone in acetone (oxazolone-treated group), or a test compound solubilized in 0.25% w/v oxazolone solution in acetone (test compound-treated group)] onto the both sides of right ear auricle of the animal to produce inflammatory reactions. Immediately after the administration, scratching behavior (counts of scratching) was measured for two hours by MicroAct. Thickness of right ear auricle of each mouse was measured by a thickness gauge before and 24 hours after the topical administration of each test compound solution. The percentage described in the Table means “% w/v”.

[2] = system: oxazolone-induced scratching behavior; assay: Chronic oxazolone-induced dermatitis model: scratching behavior (Experiment 4); format: in vivo, mouse; settings: Compound A 1%, Tacrolimus 0.1%, Dexamethasone 0.01% w/v in 0.25% oxazolone
Description: as §1, §2

[3] = system: histamine-induced scratching behavior; assay: Antipruritic effect in histamine-induced scratching model (Experiment 2); format: in vivo, mouse; settings: for Antipruritic activity (ratio of inhibition rate on scratching behavior to that of Compound A): 3% w/v in acetone 50 μL topical 1 h before histamine 300 nmol/50 μL, ICR female mice, counts for 30 minutes; for antipruritic effect in histamine-induced scratching model, result in words: 3% w/v topical, histamine 300 nmol/50 μL
Description: [Antipruritic Effect of Test Compound in Histamine-Induced Scratching Model]
After topical administration of a 3% w/v solution of a test compound or a reference compound as described in the following Table 6 in acetone (50 μL) or a vehicle (acetone; 50 μL) onto right dorsal neck of ICR female mice similarly pre-treated as described in Experiment 1, these animals were placed into a testing apparatus (MicroAct). After one hour of the administration of said compound solution or vehicle, a solution (50 μL) of histamine in saline (300 nmol/50 μL) or saline (50 μL) was intradermally administered to right dorsal neck of each mouse. Immediately after the administration, scratching behavior (counts of scratching) was measured for 30 minutes by MicroAct.
Inhibition rate on scratching behavior of each test compound was evaluated in terms of the following formula based on the counts of scratching in the test group in which each test compound solution was administered followed by administration of a histamine solution in saline (counts of scratching in compound-treated group), and the counts of scratching in the test group in which a vehicle (acetone) was administered followed by administration of a histamine solution in saline (counts of scratching in vehicle-treated group).
(§3) Ratio of inhibition rate on scratching behavior of each test compound to that of Compound A was calculated as antipruritic activity (%). For reference, PDE4 inhibitory activity of each compound (IC50) which was measured by a conventional manner is also shown in such Table.

[4] = system: PDE4; assay: PDE4 inhibitory activity measured by a conventional manner; format: biochemical
Description: as §3

[5] = system: histamine-induced scratching behavior; assay: Antipruritic activity in histamine-induced scratching model, dose response (Experiment 3 (1)); format: in vivo, mouse
Description: (1) [Antipruritic Activity of Test Compound in Histamine-Induced Scratching Model]
After topical administration of a solution (50 μL) of test compound (0.3 to 3% w/v solution of Compound A in acetone, or 0.03 to 0.3% w/v solution of cipamfylline in acetone), or a vehicle (acetone; 50 μL) onto right dorsal neck of ICR female mice similarly pre-treated as described in Experiment 1, these animals were placed into a testing apparatus (MicroAct). After one hour of the administration of said test compound solution or vehicle, a solution (50 μL) of histamine in saline (300 nmol/50 μL) or saline (50 μL; control group) was intradermally administered to right dorsal neck of each mouse. Immediately after the administration, scratching behavior (counts of scratching) was measured for 30 minutes by the testing apparatus (MicroAct).

[6] = system: spontaneous locomotor activity; assay: Effect on spontaneous locomotor activity (Experiment 3 (2)); format: in vivo, mouse; settings: for Spontaneous locomotor activity (Mean): measured from 1 h after administration
Description: (2) [Effect of Test Compound on Spontaneous Locomotor Activity] The same solution (50 μL) of test compound or a vehicle (50 μL) as described in the above-mentioned (1) was administered onto right dorsal neck of ICR female mice similarly pre-treated as described in Experiment 1. After one hour of the administration of the test compound solution or vehicle, these animals were placed into an apparatus for measuring spontaneous locomotor activity (SCANET, Melquest Ltd.), and their locomotor activity was measured for 30 minutes.

[7] = sensitization day, BALB/c male mouse

IC50 [4]: 0.1 nM
SMILES: COc1cc2cc(CO)c(CO)c(-c3ccnc(-n4ccc5c(CCc6cccnc6)cccc5c4=O)c3)c2cc1OC [Reference compound 3]
Antipruritic activity (ratio of inhibition rate on scratching behavior to that of Compound A) [3]: −36% | antipruritic effect in histamine-induced scratching model, result in words [3]: very weak or was not observed

IC50 [4]: 2 nM
SMILES: COc1cc2cc(CO)c(CO)c(-c3ccnc(-n4c(=O)cc(OC)c5ccccc54)c3)c2cc1OC [Compound C]
Antipruritic activity (ratio of inhibition rate on scratching behavior to that of Compound A) [3]: 116% | antipruritic effect in histamine-induced scratching model, result in words [3]: remarkable antipruritic effect

Spontaneous locomotor activity (Mean) ([6]; 0.03% w/v in acetone 50 μL topical): 6760 counts/30 min. | Spontaneous locomotor activity (Mean) ([6]; 0.1% w/v in acetone 50 μL topical): 5308 counts/30 min. | Spontaneous locomotor activity (Mean) ([6]; 0.3% w/v in acetone 50 μL topical): 4924 counts/30 min.
SMILES: Nc1nc2c([nH]1)c(=O)n(CC1CC1)c(=O)n2CC1CC1 [Cipamfylline, cipamfylline]
Counts of scratching (Mean) ([5]; 0.03% w/v in acetone 50 μL topical 1 h before histamine 300 nmol/50 μL): 579 beats/30 min. | Counts of scratching (Mean) ([5]; 0.1% w/v in acetone 50 μL topical 1 h before histamine 300 nmol/50 μL): 369 beats/30 min. | Counts of scratching (Mean) ([5]; 0.3% w/v in acetone 50 μL topical 1 h before histamine 300 nmol/50 μL): 130 beats/30 min. | spontaneous locomotor activity lowering effect at a dose producing antipruritic effect, result in words ([6]; Compound A 3% w/v, cipamfylline 0.3% w/v): showed a significant spontaneous locomotor activity lowering effect

IC50 [4]: 2 nM
SMILES: COc1cc2cc(CO)c(CO)c(-c3ccnc(-n4c(=O)cc(O)c5ccccc54)c3)c2cc1OC [Compound D]
Antipruritic activity (ratio of inhibition rate on scratching behavior to that of Compound A) [3]: 80% | antipruritic effect in histamine-induced scratching model, result in words [3]: remarkable antipruritic effect

Continued, molecule first:

SMILES: C=CC[C@@H]1/C=C(\C)C[C@H](C)C[C@H](OC)[C@H]2O[C@@](O)(C(=O)C(=O)N3CCCC[C@H]3C(=O)O[C@H](/C(C)=C/[C@@H]3CC[C@@H](O)[C@H](OC)C3)[C@H](C)[C@@H](O)CC1=O)[C@H](C)C[C@@H]2OC [Tacrolimus]
Ear auricle thickness (Mean) ([1]; 7th day): 0.35 mm | Ear auricle thickness (Mean) ([1]; 8th day): 0.58 mm | Ear auricle thickness (Mean) ([1]; 9th day): 0.41** mm | Ear auricle thickness (Mean) ([1]; 10th day): 0.49** mm | Ear auricle thickness (Mean) ([1]; 11th day): 0.49** mm | Ear auricle thickness (Mean) ([1]; 12th day): 0.57** mm | Ear auricle thickness (Mean) ([1]; 14th day): 0.52** mm | Ear auricle thickness (Mean) ([1]; 15th day): 0.73** mm | Ear auricle thickness (Mean) ([1]; 16th day): 0.65** mm | Ear auricle thickness (Mean) ([1]; 17th day): 0.71** mm | Ear auricle thickness (Mean) [1, 7]: 0.27 mm | Counts of scratching (Mean ± standard error) ([2]; 7th day, BALB/c male mouse): 1130 ± 135 (**) beats/2 hr. | Counts of scratching (Mean ± standard error) ([2]; 9th day): 1655 ± 231 beats/2 hr. | Counts of scratching (Mean ± standard error) ([2]; 11th day): 990 ± 148 beats/2 hr. | Counts of scratching (Mean ± standard error) ([2]; 14th day): 1023 ± 148 (**) beats/2 hr. | Counts of scratching (Mean ± standard error) ([2]; 16th day): 2164 ± 324 beats/2 hr.

SMILES: C[C@@H]1C[C@H]2[C@@H]3CCC4=CC(=O)C=C[C@]4(C)[C@@]3(F)[C@@H](O)C[C@]2(C)[C@@]1(O)C(=O)CO [Dexamethasone]
Ear auricle thickness (Mean) ([1]; 7th day): 0.35 mm | Ear auricle thickness (Mean) ([1]; 8th day): 0.46** mm | Ear auricle thickness (Mean) ([1]; 9th day): 0.40** mm | Ear auricle thickness (Mean) ([1]; 10th day): 0.45** mm | Ear auricle thickness (Mean) ([1]; 11th day): 0.43** mm | Ear auricle thickness (Mean) ([1]; 12th day): 0.54** mm | Ear auricle thickness (Mean) ([1]; 14th day): 0.49** mm | Ear auricle thickness (Mean) ([1]; 15th day): 0.55** mm | Ear auricle thickness (Mean) ([1]; 16th day): 0.54** mm | Ear auricle thickness (Mean) ([1]; 17th day): 0.64** mm | Ear auricle thickness (Mean) [1, 7]: 0.27 mm | Counts of scratching (Mean ± standard error) ([2]; 7th day, BALB/c male mouse): 1663 ± 144 (*) beats/2 hr. | Counts of scratching (Mean ± standard error) ([2]; 9th day): 1845 ± 442 beats/2 hr. | Counts of scratching (Mean ± standard error) ([2]; 11th day): 1274 ± 296 beats/2 hr. | Counts of scratching (Mean ± standard error) ([2]; 14th day): 1791 ± 354 beats/2 hr. | Counts of scratching (Mean ± standard error) ([2]; 16th day): 2211 ± 430 beats/2 hr.

SMILES: COc1cc2cc(CO)c(CO)c(-c3ccnc(-n4ncc5ccccc5c4=O)c3)c2cc1OC [Compound B]
Antipruritic activity (ratio of inhibition rate on scratching behavior to that of Compound A) [3]: 154% | antipruritic effect in histamine-induced scratching model, result in words [3]: remarkable antipruritic effect | IC50 [4]: 1 nM
